In the supplement of paper PMC6045584:
± gives the standard deviation of the averaged measurements.

Assays:
CABOZANTINIB = compound: COc1cc2nccc(Oc3ccc(NC(=O)C4(C(=O)Nc5ccc(F)cc5)CC4)cc3)c2cc1OC [CABOZANTINIB]; test: surviving fraction relative to DMSO-only wells; higher = less growth inhibition; conditions: exposure time: 5 days
Outline: (§1)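 Inhibitors were tested at 0.5, 1, 5, 10, 50, 100, 500 and 1000 nM, applied continuously for five days beginning 24 hours after log-phase tumour cells were seeded at 250–500 per well in 384-well plates. CellTiter-Glo luminescence served as the viability measure, expressed as surviving fraction against the median of DMSO-only wells. Each line, screened three times, was kept only with replicate Pearson r >0.7 and median Z' >0.3.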

LENVATINIB = compound: COc1cc2nccc(Oc3ccc(NC(=O)NC4CC4)c(Cl)c3)c2cc1C(N)=O [LENVATINIB]; test: as above; conditions: exposure time: 5 days
Outline: as §1

## H23 LUNG
CABOZANTINIB; 0.5 nM
  surviving fraction: 0.962 ± 0.052
CABOZANTINIB; 1 nM
  surviving fraction: 0.931 ± 0.021
CABOZANTINIB; 5 nM
  surviving fraction: 0.974 ± 0.022
CABOZANTINIB; 10 nM
  surviving fraction: 0.924 ± 0.032
CABOZANTINIB; 50 nM
  surviving fraction: 0.945 ± 0.043
CABOZANTINIB; 100 nM
  surviving fraction: 0.936 ± 0.053
CABOZANTINIB; 500 nM
  surviving fraction: 0.937 ± 0.066
CABOZANTINIB; 1000 nM
  surviving fraction: 0.925 ± 0.028
LENVATINIB; 0.5 nM
  surviving fraction: 1.03 ± 0.054
LENVATINIB; 1 nM
  surviving fraction: 1.05 ± 0.06
LENVATINIB; 5 nM
  surviving fraction: 1.06 ± 0.079
LENVATINIB; 10 nM
  surviving fraction: 1.05 ± 0.08
LENVATINIB; 50 nM
  surviving fraction: 1.05 ± 0.049
LENVATINIB; 100 nM
  surviving fraction: 1.12 ± 0.074
LENVATINIB; 500 nM
  surviving fraction: 1.15 ± 0.068
LENVATINIB; 1000 nM
  surviving fraction: 1.17 ± 0.069

## HCC78 LUNG
CABOZANTINIB; 0.5 nM
  surviving fraction: 0.826 ± 0.047
CABOZANTINIB; 1 nM
  surviving fraction: 0.884 ± 0.047
CABOZANTINIB; 5 nM
  surviving fraction: 0.991 ± 0.044
CABOZANTINIB; 10 nM
  surviving fraction: 0.608 ± 0.16
CABOZANTINIB; 50 nM
  surviving fraction: 0.315 ± 0.049
CABOZANTINIB; 100 nM
  surviving fraction: 0.281 ± 0.088
CABOZANTINIB; 500 nM
  surviving fraction: 0.185 ± 0.023
CABOZANTINIB; 1000 nM
  surviving fraction: 0.221 ± 0.058
LENVATINIB; 0.5 nM
  surviving fraction: 1.08 ± 0.28
LENVATINIB; 1 nM
  surviving fraction: 1.02 ± 0.24
LENVATINIB; 5 nM
  surviving fraction: 0.93 ± 0.32
LENVATINIB; 10 nM
  surviving fraction: 1.04 ± 0.22
LENVATINIB; 50 nM
  surviving fraction: 1.08 ± 0.044
LENVATINIB; 100 nM
  surviving fraction: 1.07 ± 0.22
LENVATINIB; 500 nM
  surviving fraction: 1.02 ± 0.1
LENVATINIB; 1000 nM
  surviving fraction: 0.978 ± 0.14

## HCC202 BREAST
CABOZANTINIB; 0.5 nM
  surviving fraction: 1.12 ± 0.14
CABOZANTINIB; 1 nM
  surviving fraction: 1.11 ± 0.079
CABOZANTINIB; 5 nM
  surviving fraction: 1.2 ± 0.031
CABOZANTINIB; 10 nM
  surviving fraction: 1.15 ± 0.17
CABOZANTINIB; 50 nM
  surviving fraction: 1.1 ± 0.28
CABOZANTINIB; 100 nM
  surviving fraction: 1.13 ± 0.065
CABOZANTINIB; 500 nM
  surviving fraction: 1.31 ± 0.12
CABOZANTINIB; 1000 nM
  surviving fraction: 1.09 ± 0.098
LENVATINIB; 0.5 nM
  surviving fraction: 1.04 ± 0.13
LENVATINIB; 1 nM
  surviving fraction: 0.977 ± 0.21
LENVATINIB; 5 nM
  surviving fraction: 1.1 ± 0.33
LENVATINIB; 10 nM
  surviving fraction: 1.32 ± 0.17
LENVATINIB; 50 nM
  surviving fraction: 0.801 ± 0.56
LENVATINIB; 100 nM
  surviving fraction: 1.15 ± 0.18
LENVATINIB; 500 nM
  surviving fraction: 0.783 ± 0.6
LENVATINIB; 1000 nM
  surviving fraction: 0.946 ± 0.25

## HCC1395 BREAST
CABOZANTINIB; 0.5 nM
  surviving fraction: 1.12 ± 0.073
CABOZANTINIB; 1 nM
  surviving fraction: 1.02 ± 0.06
CABOZANTINIB; 5 nM
  surviving fraction: 1.14 ± 0.045
CABOZANTINIB; 10 nM
  surviving fraction: 1.23 ± 0.034
CABOZANTINIB; 50 nM
  surviving fraction: 1.38 ± 0.14
CABOZANTINIB; 100 nM
  surviving fraction: 1.33 ± 0.053
CABOZANTINIB; 500 nM
  surviving fraction: 1.13 ± 0.085
CABOZANTINIB; 1000 nM
  surviving fraction: 1.2 ± 0.086
LENVATINIB; 0.5 nM
  surviving fraction: 0.937 ± 0.018
LENVATINIB; 1 nM
  surviving fraction: 0.948 ± 0.079
LENVATINIB; 5 nM
  surviving fraction: 0.932 ± 0.05
LENVATINIB; 10 nM
  surviving fraction: 1.03 ± 0.058
LENVATINIB; 50 nM
  surviving fraction: 1 ± 0.11
LENVATINIB; 100 nM
  surviving fraction: 1.03 ± 0.045
LENVATINIB; 500 nM
  surviving fraction: 0.999 ± 0.098
LENVATINIB; 1000 nM
  surviving fraction: 0.845 ± 0.075

## HCC1806 BREAST
CABOZANTINIB; 0.5 nM
  surviving fraction: 0.863 ± 0.075
CABOZANTINIB; 1 nM
  surviving fraction: 1.06 ± 0.057
CABOZANTINIB; 5 nM
  surviving fraction: 1.092 ± 0.0075
CABOZANTINIB; 10 nM
  surviving fraction: 1.06 ± 0.073
CABOZANTINIB; 50 nM
  surviving fraction: 1.19 ± 0.078
CABOZANTINIB; 100 nM
  surviving fraction: 1.08 ± 0.12
CABOZANTINIB; 500 nM
  surviving fraction: 1.08 ± 0.021
CABOZANTINIB; 1000 nM
  surviving fraction: 1.09 ± 0.13
LENVATINIB; 0.5 nM
  surviving fraction: 1.02 ± 0.018
LENVATINIB; 1 nM
  surviving fraction: 0.932 ± 0.099
LENVATINIB; 5 nM
  surviving fraction: 1.12 ± 0.13
LENVATINIB; 10 nM
  surviving fraction: 1.13 ± 0.089
LENVATINIB; 50 nM
  surviving fraction: 1.24 ± 0.079
LENVATINIB; 100 nM
  surviving fraction: 1.1 ± 0.13
LENVATINIB; 500 nM
  surviving fraction: 0.961 ± 0.088
LENVATINIB; 1000 nM
  surviving fraction: 0.941 ± 0.13

## HCC1954 BREAST
CABOZANTINIB; 0.5 nM
  surviving fraction: 0.955 ± 0.018
CABOZANTINIB; 1 nM
  surviving fraction: 1.04 ± 0.02
CABOZANTINIB; 5 nM
  surviving fraction: 1.03 ± 0.13
CABOZANTINIB; 10 nM
  surviving fraction: 1.02 ± 0.16
CABOZANTINIB; 50 nM
  surviving fraction: 1.1 ± 0.073
CABOZANTINIB; 100 nM
  surviving fraction: 0.921 ± 0.0035
CABOZANTINIB; 500 nM
  surviving fraction: 1.0215 ± 0.00071
CABOZANTINIB; 1000 nM
  surviving fraction: 1.02 ± 0.055
LENVATINIB; 0.5 nM
  surviving fraction: 0.904 ± 0.058
LENVATINIB; 1 nM
  surviving fraction: 0.817 ± 0.05
LENVATINIB; 5 nM
  surviving fraction: 1.0393 ± 0.00035
LENVATINIB; 10 nM
  surviving fraction: 0.917 ± 0.04
LENVATINIB; 50 nM
  surviving fraction: 0.993 ± 0.058
LENVATINIB; 100 nM
  surviving fraction: 0.988 ± 0.011
LENVATINIB; 500 nM
  surviving fraction: 1.03 ± 0.11
LENVATINIB; 1000 nM
  surviving fraction: 1.11 ± 0.067

## HCT15 LARGE INTESTINE
CABOZANTINIB; 0.5 nM
  surviving fraction: 0.952 ± 0.044
CABOZANTINIB; 1 nM
  surviving fraction: 0.95 ± 0.06
CABOZANTINIB; 5 nM
  surviving fraction: 0.943 ± 0.044
CABOZANTINIB; 10 nM
  surviving fraction: 0.951 ± 0.073
CABOZANTINIB; 50 nM
  surviving fraction: 0.966 ± 0.036
CABOZANTINIB; 100 nM
  surviving fraction: 1.02 ± 0.037
CABOZANTINIB; 500 nM
  surviving fraction: 0.994 ± 0.065
CABOZANTINIB; 1000 nM
  surviving fraction: 1.04 ± 0.06
LENVATINIB; 0.5 nM
  surviving fraction: 1.09 ± 0.031
LENVATINIB; 1 nM
  surviving fraction: 1.08 ± 0.039
LENVATINIB; 5 nM
  surviving fraction: 1.08 ± 0.031
LENVATINIB; 10 nM
  surviving fraction: 1.09 ± 0.063
LENVATINIB; 50 nM
  surviving fraction: 1.13 ± 0.052
LENVATINIB; 100 nM
  surviving fraction: 1.17 ± 0.061
LENVATINIB; 500 nM
  surviving fraction: 1.12 ± 0.028
LENVATINIB; 1000 nM
  surviving fraction: 1.14 ± 0.021

## HELA CERVIX
CABOZANTINIB; 0.5 nM
  surviving fraction: 1.01 ± 0.028
CABOZANTINIB; 1 nM
  surviving fraction: 0.98 ± 0.021
CABOZANTINIB; 5 nM
  surviving fraction: 0.999 ± 0.033
CABOZANTINIB; 10 nM
  surviving fraction: 0.955 ± 0.042
CABOZANTINIB; 50 nM
  surviving fraction: 1.08 ± 0.036
CABOZANTINIB; 100 nM
  surviving fraction: 1.06 ± 0.05
CABOZANTINIB; 500 nM
  surviving fraction: 1.11 ± 0.088
CABOZANTINIB; 1000 nM
  surviving fraction: 1.1 ± 0.028
LENVATINIB; 0.5 nM
  surviving fraction: 1.06 ± 0.088
LENVATINIB; 1 nM
  surviving fraction: 1.04 ± 0.095
LENVATINIB; 5 nM
  surviving fraction: 1.05 ± 0.061
LENVATINIB; 10 nM
  surviving fraction: 1.05 ± 0.071
LENVATINIB; 50 nM
  surviving fraction: 1.17 ± 0.04
LENVATINIB; 100 nM
  surviving fraction: 1.19 ± 0.1
LENVATINIB; 500 nM
  surviving fraction: 1.19 ± 0.1
LENVATINIB; 1000 nM
  surviving fraction: 1.17 ± 0.044

## HOS BONE
CABOZANTINIB; 0.5 nM
  surviving fraction: 1.02 ± 0.011
CABOZANTINIB; 1 nM
  surviving fraction: 1.001 ± 0.001
CABOZANTINIB; 5 nM
  surviving fraction: 1.02 ± 0.015
CABOZANTINIB; 10 nM
  surviving fraction: 0.9757 ± 0.008
CABOZANTINIB; 50 nM
  surviving fraction: 1.015 ± 0.0092
CABOZANTINIB; 100 nM
  surviving fraction: 0.984 ± 0.02
CABOZANTINIB; 500 nM
  surviving fraction: 0.924 ± 0.019
CABOZANTINIB; 1000 nM
  surviving fraction: 0.89 ± 0.014
LENVATINIB; 0.5 nM
  surviving fraction: 1.03 ± 0.012
LENVATINIB; 1 nM
  surviving fraction: 1.067 ± 0.0047
LENVATINIB; 5 nM
  surviving fraction: 1.03 ± 0.028
LENVATINIB; 10 nM
  surviving fraction: 1.02 ± 0.025
LENVATINIB; 50 nM
  surviving fraction: 1.06 ± 0.071
LENVATINIB; 100 nM
  surviving fraction: 1.05 ± 0.047
LENVATINIB; 500 nM
  surviving fraction: 1.02 ± 0.017
LENVATINIB; 1000 nM
  surviving fraction: 0.946 ± 0.0092

## HOSMNG BONE
CABOZANTINIB; 0.5 nM
  surviving fraction: 0.961 ± 0.061
CABOZANTINIB; 1 nM
  surviving fraction: 0.984 ± 0.053
CABOZANTINIB; 5 nM
  surviving fraction: 0.885 ± 0.036
CABOZANTINIB; 10 nM
  surviving fraction: 0.913 ± 0.1
CABOZANTINIB; 50 nM
  surviving fraction: 0.833 ± 0.038
CABOZANTINIB; 100 nM
  surviving fraction: 0.839 ± 0.018
CABOZANTINIB; 500 nM
  surviving fraction: 0.314 ± 0.0085
CABOZANTINIB; 1000 nM
  surviving fraction: 0.274 ± 0.011
LENVATINIB; 0.5 nM
  surviving fraction: 1.02 ± 0.036
LENVATINIB; 1 nM
  surviving fraction: 1.03 ± 0.023
LENVATINIB; 5 nM
  surviving fraction: 0.964 ± 0.06
LENVATINIB; 10 nM
  surviving fraction: 1.02 ± 0.043
LENVATINIB; 50 nM
  surviving fraction: 1.11 ± 0.033
LENVATINIB; 100 nM
  surviving fraction: 1.07 ± 0.036
LENVATINIB; 500 nM
  surviving fraction: 1.09 ± 0.067
LENVATINIB; 1000 nM
  surviving fraction: 1.05 ± 0.091
